Measurements as given in patent publication US8178678B2, “Bis-quaternary ammonium salts and methods for modulating neuronal nicotinic acetylcholine receptors” (University of Kentucky Research Foundation, priority 2006, dated 2012).

Columns and labels:
[1] = molecular target: T1, Rat Striatal Nicotinic Receptors ([^3H]MLA binding sites; α7) (Rattus norvegicus, UniProt Q05941); test: Inhibition of [^3H]MLA (methyllycaconitine) binding; conditions: 100 nM analog; [^3H]MLA; nonspecific S-nicotine; rat brain membranes; read-out: [^3H]MLA binding, % inhibition
T1 construct: Whole brain, excluding cortex and cerebellum, was homogenized in 20 vol of ice-cold buffer; from tissue; host or cells: rat brain membranes (whole brain excluding cortex and cerebellum)
Method: Homogenate was centrifuged (25,000 g, 15 min, 4° C). Pellets were resuspended in 20 vol buffer and incubated at 37° C., for 10 min, cooled to 4° C. and centrifuged (25,000 g, 15 min, 4° C.). Pellets were resuspended and centrifuged using the same conditions. […] Upon use, final pellets were resuspended in 20 vol assay buffer. Samples (250 μl) contained 100-140 μg of membrane protein, 3 nM [^3H]-S-nicotine or 3 nM [^3H]-methyllycaconitine (MLA), and bis-quaternary ammonium analog (100 nM) in assay buffer containing 50 mM Tris. Control was in the absence of analog. In [^3H]-S-nicotine and [^3H]-methyllycaconitine binding assays, nonspecific binding was determined in the presence of 10 μM cytisine and 10 μM S-nicotine, respectively. Incubations proceeded for 60 min at room temperature using 96-well plates and were terminated by harvesting on Unifilter-96 GF/B filter plates presoaked in 0.5% polyethylenimine, using a Packard FilterMate harvester. After washing 5 times with 350 μl ice-cold assay buffer, filter plates were dried (60 min, 4° C.), bottom-sealed, and filled with Packard's MicroScint 20 cocktail (40 μl/well). After 60 min, filter plates were top-sealed, and radioactivity determined using a Packard TopCount. Protein concentrations were determined using the Bradford dye-binding procedure bovine serum albumin as the standard. […]

[2] = molecular target: T2, Rat Striatal Nicotinic Receptors ([^3H]NIC binding sites; α4β2) (Rattus norvegicus, UniProt P09483+P12390); test: Inhibition of [^3H]NIC binding; conditions: 1 h; 100 nM analog; 3 nM [^3H]NIC; nonspecific 10 μM cytisine; rat brain membranes
T2 construct: Whole brain, excluding cortex and cerebellum, was homogenized in 20 vol of ice-cold buffer; from tissue; host or cells: rat brain membranes (whole brain excluding cortex and cerebellum)
Method: Homogenate was centrifuged (25,000 g, 15 min, 4° C). Pellets were resuspended in 20 vol buffer and incubated at 37° C., for 10 min, cooled to 4° C. and centrifuged (25,000 g, 15 min, 4° C.). Pellets were resuspended and centrifuged using the same conditions. […] Upon use, final pellets were resuspended in 20 vol assay buffer. Samples (250 μl) contained 100-140 μg of membrane protein, 3 nM [^3H]-S-nicotine or 3 nM [^3H]-methyllycaconitine (MLA), and bis-quaternary ammonium analog (100 nM) in assay buffer containing 50 mM Tris. Control was in the absence of analog. In [^3H]-S-nicotine and [^3H]-methyllycaconitine binding assays, nonspecific binding was determined in the presence of 10 μM cytisine and 10 μM S-nicotine, respectively. Incubations proceeded for 60 min at room temperature using 96-well plates and were terminated by harvesting on Unifilter-96 GF/B filter plates presoaked in 0.5% polyethylenimine, using a Packard FilterMate harvester. After washing 5 times with 350 μl ice-cold assay buffer, filter plates were dried (60 min, 4° C.), bottom-sealed, and filled with Packard's MicroScint 20 cocktail (40 μl/well). After 60 min, filter plates were top-sealed, and radioactivity determined using a Packard TopCount. Protein concentrations were determined using the Bradford dye-binding procedure bovine serum albumin as the standard.
Specific binding in the [^3H]NIC binding assay is calculated as the difference between the total binding of 3 nM [^3H]NIC and nonspecific binding in the presence of 10 μM cold cytisine. […] Analog-induced inhibition of S-nicotine-evoked [^3H]DA release is calculated as a percent of that in the absence of the bis-quaternary ammonium analog.

T1 sequence (Q05941 23-502): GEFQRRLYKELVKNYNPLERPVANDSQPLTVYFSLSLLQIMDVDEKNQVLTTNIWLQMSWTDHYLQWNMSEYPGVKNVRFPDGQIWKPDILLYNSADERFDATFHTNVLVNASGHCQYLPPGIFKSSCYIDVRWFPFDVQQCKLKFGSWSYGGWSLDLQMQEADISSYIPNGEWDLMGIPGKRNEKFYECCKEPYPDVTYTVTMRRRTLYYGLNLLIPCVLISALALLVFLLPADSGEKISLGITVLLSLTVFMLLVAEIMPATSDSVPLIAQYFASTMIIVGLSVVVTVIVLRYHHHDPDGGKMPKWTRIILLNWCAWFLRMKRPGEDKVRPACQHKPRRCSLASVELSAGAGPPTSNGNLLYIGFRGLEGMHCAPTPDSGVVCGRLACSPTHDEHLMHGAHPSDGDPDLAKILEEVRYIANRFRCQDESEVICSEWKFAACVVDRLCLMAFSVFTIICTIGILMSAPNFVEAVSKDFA
T2 sequence (P09483 31-630): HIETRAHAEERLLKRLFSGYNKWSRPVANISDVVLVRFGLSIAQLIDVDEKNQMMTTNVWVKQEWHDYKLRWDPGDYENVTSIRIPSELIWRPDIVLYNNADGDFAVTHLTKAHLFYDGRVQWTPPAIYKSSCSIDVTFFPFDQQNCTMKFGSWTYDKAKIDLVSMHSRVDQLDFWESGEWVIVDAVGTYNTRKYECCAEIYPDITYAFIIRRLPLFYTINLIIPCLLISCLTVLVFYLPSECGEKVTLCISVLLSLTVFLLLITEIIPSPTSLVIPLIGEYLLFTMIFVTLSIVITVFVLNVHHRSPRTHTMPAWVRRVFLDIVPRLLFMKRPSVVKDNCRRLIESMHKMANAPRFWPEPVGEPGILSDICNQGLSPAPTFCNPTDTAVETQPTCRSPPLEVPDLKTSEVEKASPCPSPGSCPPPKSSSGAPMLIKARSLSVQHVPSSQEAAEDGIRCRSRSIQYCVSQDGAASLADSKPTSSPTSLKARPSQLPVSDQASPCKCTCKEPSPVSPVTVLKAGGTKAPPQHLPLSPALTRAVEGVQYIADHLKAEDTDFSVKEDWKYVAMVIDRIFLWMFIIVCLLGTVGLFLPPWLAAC
T2 sequence (P12390 25-500): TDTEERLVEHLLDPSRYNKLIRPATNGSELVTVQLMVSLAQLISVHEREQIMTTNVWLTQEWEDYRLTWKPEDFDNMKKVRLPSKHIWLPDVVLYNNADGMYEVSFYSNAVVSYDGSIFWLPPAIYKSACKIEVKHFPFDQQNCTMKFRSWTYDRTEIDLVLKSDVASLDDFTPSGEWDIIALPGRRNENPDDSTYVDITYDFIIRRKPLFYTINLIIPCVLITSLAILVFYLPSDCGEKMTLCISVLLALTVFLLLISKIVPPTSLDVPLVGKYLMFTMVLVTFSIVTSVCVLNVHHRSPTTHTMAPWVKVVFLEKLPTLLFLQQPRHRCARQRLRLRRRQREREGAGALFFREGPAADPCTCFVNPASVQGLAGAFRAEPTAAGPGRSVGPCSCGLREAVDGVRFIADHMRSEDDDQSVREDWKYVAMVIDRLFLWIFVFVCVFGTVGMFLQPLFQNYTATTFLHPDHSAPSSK

| SMILES | inhibition at 0.1 µM [1] [%] | inhibition at 0.1 µM [2] [%] |
| --- | --- | --- |
| Cc1cc[n+](CCCCc2ccc(CCCC[n+]3ccc(C)cc3C)cc2)c(C)c1 [Example 18, N,N′-[1,4-phenylenedi-(4-butanyl)]-bis-(2,4-dimethylpyridinium)dibromide] | 0 | 0 |
| Cc1cc[n+](CCCc2ccc(-c3ccc(CCC[n+]4ccc(C)cc4)cc3)cc2)cc1 [Example 77, N,N′-[(1,1′-biphenyl)-4,4′-di-(3-propanyl)]-bis-(4-methylpyridinium)dibromide] | 0 | 0 |
| Cc1cc(C)c[n+](CCCC/C=C\C=C/CCCC[n+]2cc(C)cc(C)c2)c1 [Example 9, cis-cis-N,N′-(dodeca-5,7-diene-1,12-diyl)-bis-(3,5-dimethyl-pyridinium)dibromide] | 0 | 0 |
| CN1CCC[C@H]1c1ccc[n+](CCOCCOCCOCC[n+]2cccc([C@@H]3CCCN3C)c2)c1 [Example 80, N,N′-{2,2′-[oxybis-(2,1-ethandiyloxy)]bis-ethyl}-bis-[3-(2′-S-1-methyl-pyrrolidin-2-yl)-pyridinium]dichloride] | 13 | 7.2 |
| Cc1cc[n+](CCOCCOCCOCC[n+]2ccc(C)cc2C)c(C)c1 [Example 88, N,N′-{2,2′-[oxybis-(2,1-ethandiyloxy)]bis-ethyl}-bis-(2,4-dimethylpyridinium)dichloride] | 2.9 | 0 |
| Cc1cc[n+](CCOCCOCCOCC[n+]2ccc(C)c(C)c2)cc1C [Example 89, N,N′-{2,2′-[oxybis-(2,1-ethandiyloxy)]bis-ethyl}-bis-(3,4-dimethylpyridinium)dichloride] | 14 | 13 |
| Cc1cc[n+](CCCC/C=C\C=C/CCCC[n+]2ccc(C)cc2C)c(C)c1 [Example 7, cis-cis-N,N′-(dodeca-5,7-diene-1,12-diyl)-bis-(2,4-dimethyl-pyridinium)dibromide] | 6 | 1 |
| OCCCc1ccc[n+](CCCc2ccc(-c3ccc(CCC[n+]4cccc(CCCO)c4)cc3)cc2)c1 [Example 74, N,N′-[(1,1′-biphenyl)-4,4′-di-(3-propanyl)]-bis-[3-(3-hydroxy-propyl)-pyridinium]dibromide] | 5.8 | 2 |
| Cc1cc(C)c[n+](CCOCCOCCOCC[n+]2cc(C)cc(C)c2)c1 [Example 90, N,N′-{2,2′-[oxybis-(2,1-ethandiyloxy)]bis-ethyl}-bis-(3,5-dimethylpyridinium)dichloride] | 5 | 10 |
| Cc1ccc[n+](CC#Cc2ccc(-c3ccc(C#CC[n+]4cccc(C)c4)cc3)cc2)c1 [Example 102, N,N′-[(1,1′-biphenyl)-4,4′-di-(1-propyn-3-yl)]-bis-(3-methylpyridinium)dibromide] | 12 | 9.4 |
| CCCCc1ccc[n+](CCCCCc2ccccc2CCCCC[n+]2cccc(CCCC)c2)c1 [Example 43, 1,2-bis-[5-(3-n-butyl-pyridinium)-pentyl]-benzene dibromide] | 5.5 | 0.8 |
| Cc1cc[n+](CCCC/C=C\C=C/CCCC[n+]2ccc(C)c(C)c2)cc1C [Example 8, cis-cis-N,N′-(dodeca-5,7-diene-1,12-diyl)-bis-(3,4-dimethyl-pyridinium)dibromide] | 0 | 0 |
| OCc1ccc[n+](CCOCCOCCOCC[n+]2cccc(CO)c2)c1 [Example 87, N,N′-{2,2′-[oxybis-(2,1-ethandiyloxy)]bis-ethyl}-bis-(3-hydroxymethylpyridinium)dichloride] | 11 | 8.2 |
| Cc1cc(C)c[n+](CCCc2ccc(-c3ccc(CCC[n+]4cc(C)cc(C)c4)cc3)cc2)c1 [Example 71, N,N′-[(1,1′-biphenyl)-4,4′-di-(3-propanyl)]-bis-(3,5-dimethylpyridinium)dibromide] | 3.6 | 1.6 |
| Cc1cc[n+](CCCc2ccc(-c3ccc(CCC[n+]4ccc(C)cc4C)cc3)cc2)c(C)c1 [Example 73, N,N′-[(1,1′-biphenyl)-4,4′-di-(3-propanyl)]-bis-(2,4dimethylpyridinium)dibromide] | 0.6 | 3 |
| Cc1cc[n+](CCCc2ccc(-c3ccc(CCC[n+]4ccc(C)c(C)c4)cc3)cc2)cc1C [Example 72, N,N′-[(1,1′-biphenyl)-4,4′-di-(3-propanyl)]-bis-(3,4-dimethylpyridinium)dibromide] | 5.5 | 0 |
| Cc1cc[n+](CC#Cc2ccc(-c3ccc(C#CC[n+]4ccc(C)c(C)c4)cc3)cc2)cc1C [Example 104, N,N′-[(1,1′-biphenyl)-4,4′-di-(1-propyn-3-yl)]-bis-(3,4-dimethylpyridinium)dibromide] | 16 | 19 |
| Cc1cccc[n+]1CCOCCOCCOCC[n+]1ccccc1C [Example 81, N,N′-{2,2′-[oxybis-(2,1-ethandiyloxy)]bis-ethyl}-bis(2-methylpyridinium)dichloride] | 17 | 8.5 |
| c1cc2c([n+](CCOCCOCCOCC[n+]3cccc4c3CCCC4)c1)CCCC2 [Example 84, N,N′-{2,2′-[oxybis-(2,1-ethandiyloxy)]bis-ethyl}-bis(5,6,7,8-tetrahydroquinolinium)dichloride] | 4.7 | 0 |
| Cc1cc[n+](CC#Cc2ccc(-c3ccc(C#CC[n+]4ccc(C)cc4)cc3)cc2)cc1 [Example 103, N,N′-[(1,1′-biphenyl)-4,4′-di-(1-propyn-3-yl)]-bis-(4-methylpyridinium)dibromide] | 12 | 9.6 |
| c1cc(-c2ccc(CCC[n+]3ccc4c(c3)CCCC4)cc2)ccc1CCC[n+]1ccc2c(c1)CCCC2 [Example 76, N,N′-[(1,1′-biphenyl)-4,4′-di-(3-propanyl)]-bis-[5,6,7,8-tetrahydroisoquinolinium]dibromide] | 5.1 | 0 |
| c1c[n+](CCOCCOCCOCC[n+]2ccc3c(c2)CCCC3)cc2c1CCCC2 [Example 85, N,N′-{2,2′-[oxybis-(2,1-ethandiyloxy)]bis-ethyl}-bis(5,6,7,8-tetrahydroisoquinolinium)dichloride] | 16 | 6 |
| Cc1cccc[n+]1CCCc1ccc(-c2ccc(CCC[n+]3ccccc3C)cc2)cc1 [Example 79, N,N′-[(1,1′-biphenyl)-4,4′-di-(3-propanyl)]-bis-(2-methylpyridinium)dibromide] | 0 | 0 |
| Cc1cc(C)c[n+](CCCCc2ccc(CCCC[n+]3cc(C)cc(C)c3)cc2)c1 [Example 20, N,N′-[1,4-phenylenedi-(4-butanyl)]-bis-(3,5-dimethylpyridinium)dibromide] | 0 | 1 |
| OCCCc1ccc[n+](CCOCCOCCOCC[n+]2cccc(CCCO)c2)c1 [Example 86, N,N′-{2,2′-[oxybis-(2,1-ethandiyloxy)]bis-ethyl}-bis-[3-(3-hydroxypropyl)-pyridinium]dichloride] | 8.5 | 8.2 |
| CCc1ccc[n+](CCCCc2ccc(CCCC[n+]3cccc(CC)c3)cc2)c1 [Example 14, N,N′-[1,4-phenylenedi-(4-butanyl)]-bis-(3-ethylpyridinium)dibromide] | 4 | 2 |
| CCCCc1ccc[n+](CCCC#Cc2cccc(C#CCCC[n+]3cccc(CCCC)c3)c2)c1 [Example 57, 1,3-bis-[5-(3-n-butyl-pyridinium)-pent-1-ynyl]-benzene dibromide] | 8.7 | 3.5 |
